# Measurements as given in patent publication US8247211B2, “Glycopeptide antibiotics” (American Cyanamid Company, priority 2001, dated 2012).
# Numbered stars: 1 amine (or outer) side, 2 acyl side, 3 side chain; on linkers, the order of the positions; unused ones are H or OH. Square brackets hold non-standard residues; d marks the D form. Peptide text beside a SMILES is read from it. ξ: configuration not given here. X1 = N=C1NCC(C(O)C(N[*:1])C(=O)[*:2])N1C1OC(CO)C(O)C(O)C1O; ξEnduracididine(βξ-OH,4'ξ) = N=C1NCC(C(O)C(N)C(=O)O)N1
# Assays:
# Assay in all cases: In vitro antibacterial evaluation: minimum inhibitory concentration (MIC), broth dilution method
# Type in all cases: cell-based
# Escherichia coli [1] = test system: Escherichia coli
# Enterococcus sp. = test system: Enterococcus sp.
# In short: (§1)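 NCCLS M7-A2 broth dilution with Mueller-Hinton II, testing 64-0.06 μg/mL antibiotic against 5×10^5 CFU/mL inocula. Test strains include recent methicillin-, penicillin- or vancomycin-resistant clinical isolates. MIC is the lowest concentration preventing growth.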
# Staphylococcus sp. = conditions: 18 hours at 35° C.
# In short: as §1
# Escherichia coli [2] = test system: Escherichia coli; remark: listed apart in the source
# In short: as §1
structure (smiles),measurement,setting,value
"CC(C)CCC(=O)OC1C(OC2C(CO)OC(Oc3ccc(CC4NC(=O)C(C(C)c5ccccc5)NC(=O)CNC(=O)C(CO)NC(=O)C(C(O)C5CNC(=N)N5C5OC(CO)C(O)C(O)C5O)NC(=O)C(C(O)C5CNC(=N)N5)NC4=O)cc3)C(O)C2O)OC(CO)C(O)C1O (stereo not drawn) [Example 270a, Cyclo[glycyl-β-methylphenylalanyl-O-[4-O-[2-O-(4-methylpentanoyl)hexopyranosyl]-hexopyranosyl]tyrosyl-3-(2-iminoimidazolidin-4-yl)seryl-3-(3-hexopyranosyl-2-iminoimidazolidin-4-yl)serylseryl]]",MIC Escherichia coli (ATCC 25922),Escherichia coli [1],>64 µg/mL
same,MIC Enterococcus avium (GC 4558),Enterococcus sp.,16 µg/mL
same,MIC Enterococcus faecalis (ATCC 29212),Enterococcus sp.,16 µg/mL
same,MIC Enterococcus faecalis (GC 4553),Enterococcus sp.,16 µg/mL
same,MIC Enterococcus faecalis (GC 4554),Enterococcus sp.,32 µg/mL
same,MIC Enterococcus faecium (GC 2243),Enterococcus sp.,16 µg/mL
same,MIC Enterococcus faecium (GC 4556),Enterococcus sp.,16 µg/mL
same,MIC Enterococcus faecium (GC 4557),Enterococcus sp.,4 µg/mL
same,MIC Coagulase Negative Staphylococcus (GC 4547),Staphylococcus sp.,2 µg/mL
same,MIC Coagulase Negative Staphylococcus (GC 4547),Staphylococcus sp.; broth dilution,2 µg/mL
same,MIC Coagulase Negative Staphylococcus (GC 4548),Staphylococcus sp.,2 µg/mL
same,MIC Coagulase Negative Staphylococcus (GC 4548),Staphylococcus sp.; broth dilution,2 µg/mL
same,MIC Coagulase Negative Staphylococcus (GC 4549),Staphylococcus sp.,2 µg/mL
same,MIC Coagulase Negative Staphylococcus (GC 4549),Staphylococcus sp.; broth dilution,2 µg/mL
same,MIC Coagulase Negative Staphylococcus (GC 4551),Staphylococcus sp.,4 µg/mL
same,MIC Coagulase Negative Staphylococcus (GC 4551),Staphylococcus sp.; broth dilution,4 µg/mL
same,MIC Staphylococcus aureus (ATCC 29213),Staphylococcus sp.,4 µg/mL
same,MIC Staphylococcus aureus (ATCC 29213),Staphylococcus sp.; broth dilution,4 µg/mL
same,MIC Staphylococcus aureus (GC 1131),Staphylococcus sp.,4 µg/mL
same,MIC Staphylococcus aureus (GC 1131),Staphylococcus sp.; broth dilution,4 µg/mL
same,MIC Staphylococcus aureus (GC 4541),Staphylococcus sp.,4 µg/mL
same,MIC Staphylococcus aureus (GC 4541),Staphylococcus sp.; broth dilution,4 µg/mL
same,MIC Staphylococcus aureus (GC 4542),Staphylococcus sp.,4 µg/mL
same,MIC Staphylococcus aureus (GC 4542),Staphylococcus sp.; broth dilution,4 µg/mL
same,MIC Staphylococcus aureus (GC 4544),Staphylococcus sp.,4 µg/mL
same,MIC Staphylococcus aureus (GC 4544),Staphylococcus sp.; broth dilution,4 µg/mL
same,MIC Staphylococcus aureus (GC 4545),Staphylococcus sp.,4 µg/mL
same,MIC Staphylococcus aureus (GC 4545),Staphylococcus sp.; broth dilution,4 µg/mL
same,MIC Staphylococcus aureus-SMITH (GC 4543),Staphylococcus sp.,4 µg/mL
same,MIC Staphylococcus aureus-SMITH (GC 4543),Staphylococcus sp.; broth dilution,4 µg/mL
same,MIC Staphylococcus haemolyticus (GC 4546),Staphylococcus sp.,2 µg/mL
same,MIC Staphylococcus haemolyticus (GC 4546),Staphylococcus sp.; broth dilution,2 µg/mL
same,MIC Escherichia coli (GC 4559),Escherichia coli [2],>64 µg/mL
same,MIC Escherichia coli (GC 4560),Escherichia coli [2],2 µg/mL
"N=C1NCC(C(O)C2NC(=O)C(Cc3ccc(O)cc3)NC(=O)C(Cc3ccccc3)NC(=O)CNC(=O)C(CO)NC(=O)C(C(O)C3CNC(=N)N3C3OC(CO)C(O)C(O)C3O)NC2=O)N1 (stereo not drawn) [Example 279a, Cyclo[glycylphenylalanyltyrosyl-3-(2-iminoimidazolidin-4-yl)seryl-3-(3-hexopyranosyl-2-iminoimidazolidin-4-yl)serylseryl]] (cyclo(GFY[ξEnduracididine(βξ-OH,4'ξ)][X1]S); configuration not given here)",MIC Escherichia coli (ATCC 25922),Escherichia coli [1],64 µg/mL
same,MIC Enterococcus avium (GC 4558),Enterococcus sp.,>64 µg/mL
same,MIC Enterococcus faecalis (ATCC 29212),Enterococcus sp.,>64 µg/mL
same,MIC Enterococcus faecalis (GC 4553),Enterococcus sp.,>64 µg/mL
same,MIC Enterococcus faecalis (GC 4554),Enterococcus sp.,>64 µg/mL
same,MIC Enterococcus faecalis (GC 6189),Enterococcus sp.; Enterococcus faecalis (GC 6189),>64 µg/mL
same,MIC Enterococcus faecium (GC 2243),Enterococcus sp.,>64 µg/mL
same,MIC Enterococcus faecium (GC 4556),Enterococcus sp.,>64 µg/mL
same,MIC Enterococcus faecium (GC 4557),Enterococcus sp.,64 µg/mL
same,MIC Coagulase Negative Staphylococcus (GC 4547),Staphylococcus sp.,64 µg/mL
same,MIC Coagulase Negative Staphylococcus (GC 4547),Staphylococcus sp.; broth dilution,64 µg/mL
same,MIC Coagulase Negative Staphylococcus (GC 4548),Staphylococcus sp.,>64 µg/mL
same,MIC Coagulase Negative Staphylococcus (GC 4548),Staphylococcus sp.; broth dilution,>64 µg/mL
same,MIC Coagulase Negative Staphylococcus (GC 4549),Staphylococcus sp.,64 µg/mL
same,MIC Coagulase Negative Staphylococcus (GC 4549),Staphylococcus sp.; broth dilution,64 µg/mL
same,MIC Coagulase Negative Staphylococcus (GC 4551),Staphylococcus sp.,>64 µg/mL
same,MIC Coagulase Negative Staphylococcus (GC 4551),Staphylococcus sp.; broth dilution,>64 µg/mL
same,MIC Coagulase Negative Staphylococcus (GC 6257),Staphylococcus sp.,64 µg/mL
same,MIC Coagulase Negative Staphylococcus (GC 6257),Staphylococcus sp.; broth dilution,64 µg/mL
same,MIC Staphylococcus aureus (ATCC 29213),Staphylococcus sp.,>64 µg/mL
same,MIC Staphylococcus aureus (ATCC 29213),Staphylococcus sp.; broth dilution,>64 µg/mL
same,MIC Staphylococcus aureus (GC 1131),Staphylococcus sp.,>64 µg/mL
same,MIC Staphylococcus aureus (GC 1131),Staphylococcus sp.; broth dilution,>64 µg/mL
same,MIC Staphylococcus aureus (GC 3051),Staphylococcus sp.,>64 µg/mL
same,MIC Staphylococcus aureus (GC 3051),Staphylococcus sp.; broth dilution,>64 µg/mL
same,MIC Staphylococcus aureus (GC 3053),Staphylococcus sp.,>64 µg/mL
same,MIC Staphylococcus aureus (GC 3053),Staphylococcus sp.; broth dilution,>64 µg/mL
same,MIC Staphylococcus aureus (GC 4541),Staphylococcus sp.,>64 µg/mL
same,MIC Staphylococcus aureus (GC 4541),Staphylococcus sp.; broth dilution,>64 µg/mL
same,MIC Staphylococcus aureus (GC 4542),Staphylococcus sp.,>64 µg/mL
same,MIC Staphylococcus aureus (GC 4542),Staphylococcus sp.; broth dilution,>64 µg/mL
same,MIC Staphylococcus aureus (GC 4544),Staphylococcus sp.,>64 µg/mL
same,MIC Staphylococcus aureus (GC 4544),Staphylococcus sp.; broth dilution,>64 µg/mL
same,MIC Staphylococcus aureus (GC 4545),Staphylococcus sp.,>64 µg/mL
same,MIC Staphylococcus aureus (GC 4545),Staphylococcus sp.; broth dilution,>64 µg/mL
same,MIC Staphylococcus aureus-SMITH (GC 4543),Staphylococcus sp.,>64 µg/mL
same,MIC Staphylococcus aureus-SMITH (GC 4543),Staphylococcus sp.; broth dilution,>64 µg/mL
same,MIC Staphylococcus haemolyticus (GC 4546),Staphylococcus sp.,64 µg/mL
same,MIC Staphylococcus haemolyticus (GC 4546),Staphylococcus sp.; broth dilution,64 µg/mL
same,MIC Escherichia coli (GC 4559),Escherichia coli [2],64 µg/mL
same,MIC Escherichia coli (GC 4560),Escherichia coli [2],32 µg/mL
